Reference: US8883781B2, “Thienopyrimidines useful as modulators of ion channels” (Vertex Pharmaceuticals Incorporated, priority 2006, dated 2014)
Like-named read-outs stand apart in the source and are kept apart here.

How the values were obtained:
NaV1.8 [1] = molecular target: T1, NaV1.8 (Homo sapiens, UniProt Q9Y5Y9); assay: Activity against NaV 1.8 channel (Table 4); assay type: cell-based
Protocol: Compounds of the invention are useful as antagonists of voltage-gated sodium ion channels. Antagonist properties of test compounds were assessed as follows. Cells expressing the NaV of interest were placed into microtiter plates. After an incubation period, the cells were stained with fluorescent dyes sensitive to the transmembrane potential. The test compounds were added to the microtiter plate. The cells were stimulated with either a chemical or electrical means to evoke a NaV dependent membrane potential change from unblocked channels, which was detected and measured with trans-membrane potential-sensitive dyes. Antagonists were detected as a decreased membrane potential response to the stimulus. The optical membrane potential assay utilized voltage-sensitive FRET sensors described by Gonzalez and Tsien (See, Gonzalez, J. E. and R. Y. Tsien (1995) “Voltage sensing by fluorescence resonance energy transfer in single cells” Biophys J 69(4):1272-80, and Gonzalez, J. E. and R. Y. Tsien (1997) “Improved indicators of cell membrane potential that use fluorescence resonance energy transfer” Chem Biol 4(4): 269-77) in combination with instrumentation for measuring fluorescence change such as the Voltage/Ion Probe Reader (VIPR®) (See, Gonzalez, J. E., K. Oades, et al. (1999) “Cell-based assays and instrumentation for screening ion-channel targets” Drug Discov Today 4(9): 431-439).
24 hours before the assay on VIPR, CHO cells endogenously expressing a NaV 1.2 type voltage-gated NaV are seeded in 96-well poly-lysine coated plates at 60,000 cells per well. Other subtypes are performed in an analogous mode in a cell line expressing the NaV of interest.
The following is an example of how NaV1.3 inhibition activity is measured using the optical membrane potential method#2. Other subtypes are performed in an analogous mode in a cell line expressing the NaV of interest.
HEK293 cells stably expressing NaV1.3 are plated into 96-well microtiter plates. After an appropriate incubation period, the cells are stained with the voltage sensitive dyes CC2-DMPE/DiSBAC2(3) as follows.
Patch clamp electrophysiology was used to assess the efficacy and selectivity of sodium channel blockers in dorsal root ganglion neurons. Rat neurons were isolated from the dorsal root ganglions and maintained in culture for 2 to 10 days in the presence of NGF (50 ng/ml) (culture media consisted of NeurobasalA supplemented with B27, glutamine and antibiotics). Small diameter neurons (nociceptors, 8-12 μm in diameter) have been visually identified and probed with fine tip glass electrodes connected to an amplifier (Axon Instruments). The “voltage clamp” mode has been used to assess the compound's IC50 holding the cells at −60 mV. In addition, the “current clamp” mode has been employed to test the efficacy of the compounds in blocking action potential generation in response to current injections. The results of these experiments have contributed to the definition of the efficacy profile of the compounds.
TTX-resistant sodium currents were recorded from DRG somata using the whole-cell variation of the patch clamp technique. Recordings were made at room temperature (˜22° C.) with thick walled borosilicate glass electrodes (WPI; resistance 3-4 MΩ) using an Axopatch 200B amplifier (Axon Instruments). After establishing the whole-cell configuration, approximately 15 minutes were allowed for the pipette solution to equilibrate within the cell before beginning recording. Currents were lowpass filtered between 2-5 kHz and digitally sampled at 10 kHz. Series resistance was compensated 60-70% and was monitored continuously throughout the experiment. The liquid junction potential (−7 mV) between the intracellular pipette solution and the external recording solution was not accounted for in the data analysis. Test solutions were applied to the cells with a gravity driven fast perfusion system (SF-77; Warner Instruments). […]

NaV1.3 = NaV1.3 (Homo sapiens, UniProt Q9NY46); conditions: read-out: TTX IC50; cited from earlier work
NaV1.6 = NaV1.6 (Homo sapiens, UniProt Q9UQD0); conditions: read-out: TTX IC50; cited from earlier work
NaV1.1 = NaV1.1 (Homo sapiens, UniProt P35498); conditions: read-out: TTX IC50; cited from earlier work
NaV1.8 [2] = molecular target: T1, NaV1.8; conditions: read-out: TTX IC50; cited from earlier work
NaV1.2 = NaV1.2 (Homo sapiens, UniProt Q99250); conditions: read-out: TTX IC50; cited from earlier work
NaV1.9 = NaV1.9 (Homo sapiens, UniProt Q9UI33); conditions: read-out: TTX IC50; cited from earlier work
[3] = human, in vivo; cited from earlier work

Chain of NaV1.2 (Q99250 whole entry, looked up): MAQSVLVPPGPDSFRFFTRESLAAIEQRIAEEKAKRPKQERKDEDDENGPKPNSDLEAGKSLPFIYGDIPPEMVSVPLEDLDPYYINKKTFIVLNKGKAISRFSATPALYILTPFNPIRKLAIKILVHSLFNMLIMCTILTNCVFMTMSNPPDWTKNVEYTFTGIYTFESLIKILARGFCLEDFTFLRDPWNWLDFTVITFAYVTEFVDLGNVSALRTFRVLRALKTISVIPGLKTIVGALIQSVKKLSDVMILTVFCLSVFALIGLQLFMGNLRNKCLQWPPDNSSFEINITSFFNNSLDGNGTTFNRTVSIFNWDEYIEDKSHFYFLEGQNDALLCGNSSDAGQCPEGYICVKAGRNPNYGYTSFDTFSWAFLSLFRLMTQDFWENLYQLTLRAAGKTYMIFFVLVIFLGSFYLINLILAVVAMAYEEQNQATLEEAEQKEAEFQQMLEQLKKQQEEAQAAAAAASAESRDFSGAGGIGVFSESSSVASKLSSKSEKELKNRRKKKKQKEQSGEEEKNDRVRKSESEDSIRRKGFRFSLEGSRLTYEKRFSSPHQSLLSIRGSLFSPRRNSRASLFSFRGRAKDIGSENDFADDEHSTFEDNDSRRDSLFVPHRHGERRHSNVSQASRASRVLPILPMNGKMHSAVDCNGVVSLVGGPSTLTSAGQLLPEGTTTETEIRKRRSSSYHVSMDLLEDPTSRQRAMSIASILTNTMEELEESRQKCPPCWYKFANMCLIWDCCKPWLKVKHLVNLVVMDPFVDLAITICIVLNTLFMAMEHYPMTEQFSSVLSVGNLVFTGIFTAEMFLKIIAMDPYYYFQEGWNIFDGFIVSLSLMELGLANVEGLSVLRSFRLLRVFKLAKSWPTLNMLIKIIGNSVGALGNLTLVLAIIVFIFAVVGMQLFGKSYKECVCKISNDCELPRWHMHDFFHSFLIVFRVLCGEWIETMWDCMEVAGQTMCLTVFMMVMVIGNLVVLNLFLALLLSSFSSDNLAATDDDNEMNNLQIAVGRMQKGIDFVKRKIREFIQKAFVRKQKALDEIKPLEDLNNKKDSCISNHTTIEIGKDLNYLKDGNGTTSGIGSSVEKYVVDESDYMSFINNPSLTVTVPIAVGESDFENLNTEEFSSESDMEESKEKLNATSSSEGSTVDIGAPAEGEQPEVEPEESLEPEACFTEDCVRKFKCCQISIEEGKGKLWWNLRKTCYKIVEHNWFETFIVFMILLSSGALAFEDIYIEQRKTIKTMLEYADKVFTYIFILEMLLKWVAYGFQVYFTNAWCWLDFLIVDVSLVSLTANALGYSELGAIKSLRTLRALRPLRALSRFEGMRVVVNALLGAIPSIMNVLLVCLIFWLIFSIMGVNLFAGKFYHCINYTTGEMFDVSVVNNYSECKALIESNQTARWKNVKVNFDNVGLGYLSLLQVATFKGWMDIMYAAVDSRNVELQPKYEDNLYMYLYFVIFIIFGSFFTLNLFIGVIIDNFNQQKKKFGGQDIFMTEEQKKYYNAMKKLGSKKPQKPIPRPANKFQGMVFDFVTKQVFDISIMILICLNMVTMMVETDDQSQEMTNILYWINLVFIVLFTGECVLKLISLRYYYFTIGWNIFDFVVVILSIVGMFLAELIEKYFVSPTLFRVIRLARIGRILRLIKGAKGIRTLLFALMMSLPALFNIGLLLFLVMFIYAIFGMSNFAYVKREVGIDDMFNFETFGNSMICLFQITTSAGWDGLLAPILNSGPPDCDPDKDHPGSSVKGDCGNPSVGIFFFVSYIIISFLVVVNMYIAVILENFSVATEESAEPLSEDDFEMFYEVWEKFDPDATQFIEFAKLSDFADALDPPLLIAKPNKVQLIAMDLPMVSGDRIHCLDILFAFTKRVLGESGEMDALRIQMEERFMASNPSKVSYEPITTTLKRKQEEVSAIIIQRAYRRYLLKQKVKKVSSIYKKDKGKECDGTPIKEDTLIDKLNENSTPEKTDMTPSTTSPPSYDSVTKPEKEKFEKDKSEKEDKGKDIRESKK
T1 sequence (Q9Y5Y9 whole entry, looked up): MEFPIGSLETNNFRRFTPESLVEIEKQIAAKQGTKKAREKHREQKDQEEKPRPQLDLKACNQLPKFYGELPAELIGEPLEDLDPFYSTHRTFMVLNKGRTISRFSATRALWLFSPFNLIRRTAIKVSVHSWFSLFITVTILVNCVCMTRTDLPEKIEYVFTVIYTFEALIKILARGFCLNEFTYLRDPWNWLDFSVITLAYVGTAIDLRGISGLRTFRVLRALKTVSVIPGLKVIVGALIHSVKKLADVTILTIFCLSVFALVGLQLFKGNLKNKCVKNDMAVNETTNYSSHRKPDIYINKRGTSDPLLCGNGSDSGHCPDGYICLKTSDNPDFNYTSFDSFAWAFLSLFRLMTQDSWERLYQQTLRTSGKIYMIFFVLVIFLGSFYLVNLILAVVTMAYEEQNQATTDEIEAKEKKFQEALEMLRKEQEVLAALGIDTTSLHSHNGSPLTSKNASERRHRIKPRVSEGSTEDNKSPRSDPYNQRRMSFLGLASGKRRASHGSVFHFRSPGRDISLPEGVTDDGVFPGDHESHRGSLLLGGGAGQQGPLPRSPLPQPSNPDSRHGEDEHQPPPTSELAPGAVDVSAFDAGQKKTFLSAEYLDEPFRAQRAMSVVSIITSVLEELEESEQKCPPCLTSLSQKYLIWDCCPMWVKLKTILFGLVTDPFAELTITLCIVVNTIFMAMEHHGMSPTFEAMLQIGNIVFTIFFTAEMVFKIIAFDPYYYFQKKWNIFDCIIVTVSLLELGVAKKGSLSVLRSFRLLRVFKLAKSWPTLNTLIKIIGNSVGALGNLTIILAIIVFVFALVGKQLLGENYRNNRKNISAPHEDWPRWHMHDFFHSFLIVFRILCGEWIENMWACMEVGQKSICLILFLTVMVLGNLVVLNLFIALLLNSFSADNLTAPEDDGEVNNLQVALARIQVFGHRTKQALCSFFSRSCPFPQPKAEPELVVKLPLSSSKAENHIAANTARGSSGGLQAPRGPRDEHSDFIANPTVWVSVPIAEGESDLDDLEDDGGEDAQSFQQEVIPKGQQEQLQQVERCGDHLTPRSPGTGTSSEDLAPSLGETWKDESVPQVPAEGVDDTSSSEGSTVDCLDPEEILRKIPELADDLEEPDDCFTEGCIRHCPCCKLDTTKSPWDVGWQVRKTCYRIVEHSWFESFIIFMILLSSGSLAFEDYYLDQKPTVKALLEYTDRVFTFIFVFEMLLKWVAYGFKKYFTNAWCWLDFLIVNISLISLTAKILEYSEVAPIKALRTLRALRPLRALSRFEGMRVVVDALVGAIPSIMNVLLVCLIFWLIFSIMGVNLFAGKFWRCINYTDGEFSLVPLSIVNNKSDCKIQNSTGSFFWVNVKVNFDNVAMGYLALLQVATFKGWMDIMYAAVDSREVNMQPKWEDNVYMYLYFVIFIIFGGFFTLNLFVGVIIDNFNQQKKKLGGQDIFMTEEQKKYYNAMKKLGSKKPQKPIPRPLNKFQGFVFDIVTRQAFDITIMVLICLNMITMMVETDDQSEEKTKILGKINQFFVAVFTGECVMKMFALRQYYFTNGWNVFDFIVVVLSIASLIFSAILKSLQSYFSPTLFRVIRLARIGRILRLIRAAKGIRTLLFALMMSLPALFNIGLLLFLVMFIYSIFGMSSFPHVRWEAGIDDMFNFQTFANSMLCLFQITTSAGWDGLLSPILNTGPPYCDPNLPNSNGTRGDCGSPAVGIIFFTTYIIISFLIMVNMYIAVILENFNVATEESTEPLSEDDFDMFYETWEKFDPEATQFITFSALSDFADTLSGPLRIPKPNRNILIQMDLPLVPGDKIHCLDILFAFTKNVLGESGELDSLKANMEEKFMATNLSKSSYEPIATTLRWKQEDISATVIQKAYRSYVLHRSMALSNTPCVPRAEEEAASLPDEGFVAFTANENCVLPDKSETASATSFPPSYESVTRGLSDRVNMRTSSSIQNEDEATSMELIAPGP

| SMILES | IC50 (NaV1.8 [1]) [µM] | also measured |
| --- | --- | --- |
| Oc1ccccc1-c1nc(N2CCOCC2)c2sc(-c3ccc(F)cc3)cc2n1 [Compound 1, 2-(6-(4-Fluorophenyl)-4-morpholinothieno[3,2-d]pyrimidin-2-yl)phenol] | > 20 | – |
| Cc1csc2nc(-c3ccccc3O)nc(N3CCC(NC(=O)OCC(C)C)CC3)c12 [Compound 6, Isobutyl 1-(2-(2-hydroxyphenyl)-5-methylthieno[2,3-d]pyrimidin-4-yl)piperidin-4-ylcarbamate] | > 20 | – |
| NC1=N[C@H](O)[C@H]2[C@H]3O[C@]4(O)O[C@@H]([C@@H](O)[C@@]2(N1)[C@@H]4O)[C@]3(O)CO [TTX, tetrodotoxin] | – | IC50 (NaV1.3): 0.015 µM; IC50 (NaV1.6): 0.006 µM; IC50 (NaV1.1): 0.01 µM; IC50 (NaV1.8 [2]): > 50 µM; IC50 (NaV1.2): 0.01 µM; IC50 (NaV1.9): 1 µM |
| CC(C)COC(=O)N1CCN(c2nc(-c3ccccc3O)nc3ccsc23)CC1 [Compound 7, Isobutyl 4-(2-(2-hydroxyphenyl)thieno[3,2-d]pyrimidin-4-yl)piperazine-1-carboxylate] | < 5 | – |
| NCC1(CC(=O)O)CCCCC1 [Gabapentin] | – | patients in whom it works [3]: 60% |
| Cc1csc2nc(-c3ccccc3O)nc(N3CCN(C(=O)OCC(C)C)CC3)c12 [Compound 4, Isobutyl 4-(2-(2-hydroxyphenyl)-5-methylthieno[2,3-d]pyrimidin-4-yl)piperazine-1-carboxylate] | > 20 | – |
| Cc1cc(C)c2c(n1)sc1c(N3CCOCC3)nc(-c3ccccc3O)nc12 [Compound 2] | > 20 | – |
| CC(C)COC(=O)NC1CCN(c2nc(-c3ccccc3O)nc3ccsc23)CC1 [Compound 8, Isobutyl 1-(2-(2-hydroxyphenyl)thieno[3,2-d]pyrimidin-4-yl)piperidin-4-ylcarbamate] | < 5 | – |
| CCCCS(=O)(=O)N1CCN(c2nc(-c3ccccc3O)nc3scc(C)c23)CC1 [Compound 5, 2-(4-(4-(butylsulfonyl)piperazin-1-yl)-5-methylthieno[2,3-d]pyrimidin-2-yl)phenol] | > 20 | – |
